This assay deals with CX3CR1 (Homo sapiens (Human), UniProt P49238). The assay is described as follows: hCX3CR1 [3H]-AZD8797 competitive binding assay (filter). The following applies: CHO-hCX3CR1 membranes, 2 nM [3H]-AZD8797. The method, boiled down: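 CHO-hCX3CR1 membranes (9 μg/well) were incubated 2 h at room temperature with 2 nM [3H]-AZD8797 and varying competitor concentrations. Buffer: 25 mM HEPES pH 7.4, 10 mM MgCl2, 1 mM CaCl2, 0.5% BSA, 1% DMSO. Bound ligand was collected by vacuum filtration, washed in ice-cold buffer with 500 mM NaCl, and counted by scintillation.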

The values that follow come from US20240199558A1, “2,4,6-TRISUBSTITUTED 1,3,5-TRIAZINES AS MODULATORS OF CX3CR1” (ASTRAZENECA AB, priority 2022, published 2024).

pIC50: −log10 of the molar value.

CX3CR1, sequence (P49238 whole entry): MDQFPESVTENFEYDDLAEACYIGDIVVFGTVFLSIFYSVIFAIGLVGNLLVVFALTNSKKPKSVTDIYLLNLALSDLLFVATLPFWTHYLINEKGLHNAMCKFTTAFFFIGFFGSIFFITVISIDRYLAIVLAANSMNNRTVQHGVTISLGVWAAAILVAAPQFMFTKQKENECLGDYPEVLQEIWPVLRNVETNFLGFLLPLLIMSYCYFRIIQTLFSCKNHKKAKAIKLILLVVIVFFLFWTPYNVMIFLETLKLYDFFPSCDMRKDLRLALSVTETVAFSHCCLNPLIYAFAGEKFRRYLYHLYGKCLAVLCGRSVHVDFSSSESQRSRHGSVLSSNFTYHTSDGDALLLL

Turning to `CC(C)C[C@H](CO)Nc1nc(CC(C)c2ccc(CO)c(F)c2)nc(NS(C)(=O)=O)n1` (stereo partly drawn) [Example 133, N-(4-(2-(3-Fluoro-4-(hydroxymethyl)phenyl)propyl)-6-(((R)-1-hydroxy-4-methylpentan-2-yl)amino)-1,3,5-triazin-2-yl)methanesulfonamide], the pIC50 (usually the IC50 on a negative log10 scale, so that one unit is a factor of ten) is 7.59.

For the compound `CC(C)C[C@H](CO)Nc1nc(CC(C)c2cnc3ccccc3c2)nc(NS(C)(=O)=O)n1` (stereo partly drawn) [Example 134, N-(4-(((R)-1-Hydroxy-4-methylpentan-2-yl)amino)-6-(2-(quinolin-3-yl)propyl)-1,3,5-triazin-2-yl)methanesulfonamide], the pIC50 was 6.69.

The compound `CC(C)C[C@H](CO)Nc1nc(CC(C)c2cccc(F)c2O)nc(NS(C)(=O)=O)n1` (stereo partly drawn) [Example 135, N-(4-(2-(3-Fluoro-2-hydroxyphenyl)propyl)-6-(((R)-1-hydroxy-4-methylpentan-2-yl)amino)-1,3,5-triazin-2-yl)methanesulfonamide] gave a pIC50 of 6.98. Against the preceding compound, the pIC50 is 0.29 log units higher.

Take `CC(C)C[C@H](CO)Nc1nc(CC(C)c2ccc(N)c(F)c2)nc(NS(C)(=O)=O)n1` (stereo partly drawn) [Example 136, N-(4-(2-(4-Amino-3-fluorophenyl)propyl)-6-(((R)-1-hydroxy-4-methylpentan-2-yl)amino)-1,3,5-triazin-2-yl)methanesulfonamide]: the pIC50 was 7.80.

On to `CC(C)C[C@H](CO)Nc1nc(CC(C)c2cccc(Cl)c2O)nc(NS(C)(=O)=O)n1` (stereo partly drawn) [Example 137, N-(4-(2-(3-Chloro-2-hydroxyphenyl)propyl)-6-(((R)-1-hydroxy-4-methylpentan-2-yl)amino)-1,3,5-triazin-2-yl)methanesulfonamide], for which the pIC50 is 6.49. This pIC50 lies 1.31 log units lower than the previous one.

`CC(C)C[C@H](CO)Nc1nc(CC(C)c2ccc(CCN3CCOCC3)cc2)nc(NS(C)(=O)=O)n1` (stereo partly drawn) [Example 138, N-(4-(((R)-1-Hydroxy-4-methylpentan-2-yl)amino)-6-(2-(4-(2-morpholinoethyl)phenyl)propyl)-1,3,5-triazin-2-yl)methanesulfonamide] showed a negative logarithm of the IC50 (pIC50) of 6.92.

As for `COc1cccc(C(C)Cc2nc(N[C@@H](CO)CC(C)C)nc(NS(C)(=O)=O)n2)c1O` (stereo partly drawn) [Example 139, N-(4-(2-(2-Hydroxy-3-methoxyphenyl)propyl)-6-(((R)-1-hydroxy-4-methylpentan-2-yl)amino)-1,3,5-triazin-2-yl)methanesulfonamide], the pIC50 was 6.33.

For the compound `CC(C)C[C@H](CO)Nc1nc(CC(C)c2ccc(OC(C)C)c(F)c2)nc(NS(C)(=O)=O)n1` (stereo partly drawn) [Example 140, N-(4-(2-(3-Fluoro-4-isopropoxyphenyl)propyl)-6-(((R)-1-hydroxy-4-methylpentan-2-yl)amino)-1,3,5-triazin-2-yl)methanesulfonamide], the pIC50 was 6.76.

Take `CC(C)C[C@H](CO)Nc1nc(CC(C)c2ccc(C#N)c(F)c2)nc(NS(C)(=O)=O)n1` (stereo partly drawn) [Example 141, N-(4-(2-(4-Cyano-3-fluorophenyl)propyl)-6-(((R)-1-hydroxy-4-methylpentan-2-yl)amino)-1,3,5-triazin-2-yl)methanesulfonamide]: the pIC50 is 6.76.

`CC(C)C[C@H](CO)Nc1nc(CC(C)c2ccc(F)cc2O)nc(NS(C)(=O)=O)n1` (stereo partly drawn) [Example 142, N-(4-(2-(4-Fluoro-2-hydroxyphenyl)propyl)-6-(((R)-1-hydroxy-4-methylpentan-2-yl)amino)-1,3,5-triazin-2-yl)methanesulfonamide]: the pIC50 was 6.96.

Turning to `CC(C)C[C@H](CO)Nc1nc(CC(c2ccccc2)C(F)(F)F)nc(NS(C)(=O)=O)n1` (stereo partly drawn) [Example 151, N-(4-(((R)-1-Hydroxy-4-methylpentan-2-yl)amino)-6-(3,3,3-trifluoro-2-phenylpropyl)-1,3,5-triazin-2-yl)methanesulfonamide], the pIC50 is 6.31.

For the compound `CC(C)C[C@H](CO)Nc1nc(CC(C)(C)c2ccccc2)nc(NS(C)(=O)=O)n1` [Example 152, (R)—N-(4-((1-Hydroxy-4-methylpentan-2-yl)amino)-6-(2-methyl-2-phenylpropyl)-1,3,5-triazin-2-yl)methanesulfonamide], the pIC50 is below 5.10.
